Results on four compounds are retold here after patent US10736863B2, “Methods of inhibiting cataracts and presbyopia” (UNIVERSITY OF MASSACHUSETTS, priority 2015, dated 2020).

The target in the assay is T1, human γD-crystallin protein (Homo sapiens, UniProt P07320).
T1 construct: 6xHis (N); made in house; host or cells: E. coli (M15pRep; TAM 1 is also named as an expression line); pQe1 plasmids from the King Labs, MIT
T1 sequence (P07320 1-174): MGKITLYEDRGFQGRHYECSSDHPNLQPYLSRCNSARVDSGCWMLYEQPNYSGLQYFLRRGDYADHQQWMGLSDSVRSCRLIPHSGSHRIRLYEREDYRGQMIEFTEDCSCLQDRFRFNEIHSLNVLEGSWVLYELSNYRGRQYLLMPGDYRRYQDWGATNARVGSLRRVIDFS
Description: Dynamic light scattering of γD-crystallin protein modified with CA(PEG)n. The format is biochemical. The source says:
The γD- and γS-crystallin DNA sequences are in pQe1 plasmids that were provided by the King Labs at Massachusetts Institute of Technology (Cambridge, Mass.). γ-crystallin protein sequences contain a 6×N-terminal histidine tag (his tag) for purification purposes. The plasmids were transformed into a cloning competent cell line to create additional plasmid DNA. Plasmids were subsequently transformed into an expression competent cell line for protein synthesis (TAM 1 E. coli cells (Active Motif. Carlsbad, Calif.)).
γ-crystallin plasmid DNA was chemically transformed into M15pRep E. coli cells for protein synthesis. 1 L cultures were grown for protein purification. γ-crystallin protein was purified by Ni affinity chromatography. The N-terminal His tag contained on the γ-crystallin proteins preferentially binds to the Ni column. The bound protein can be eluted with an imidazole gradient which competitively binds to the Ni, releasing the purified protein. The procedure for purification is briefly (as before): protein is loaded on column, and washed first with 20 mM (0% B), then 35 mM (10% B), then 60 mM (20% B) imidazole. Protein is then eluted at 150 mM (57% B) imidazole. Purity was confirmed by SDS PAGE gel electrophoresis and fast protein liquid chromatography (FPLC).
Chemical Modification Protocol: • 1) A batch of purified protein was buffer exchanged into PBS pH=6.8 using a HiTrap™ desalting column. • (2) Concentration (A280) was measured prior to the addition of CA(PEG)n. • (3) 100 mg of CA(PEG)n was added to a 3-5 ml batch of the above protein. • (4) The mixture was placed on a shaker at 4° C. at 250 RPM overnight.
First a solution of unmodified γD-crystallin protein at a concentration of 0.1 mg/mL was studied by DLS. The measured correlation function g2-1 is plotted against the delay time (lag time) is given for the scattering angle of 30° in FIG. 2. The CONTIN analysis of the weight of various relaxation times is given in FIG. 3 for scattering angles ranging from 30° to 60°. It is clear that there are two populations in the solution, one corresponding to aggregates and the other corresponding to unaggregated protein.

Setting [1] is: 0.9 mg/mL of protein and 33 mg/ml of CA(PEG)n.
Where [2] appears, read: 0.4 mg/mL of protein and 15 mg/ml of CA(PEG)2.
Setting [3] is: 0.3 mg/mL of protein and 11 mg/ml of CA(PEG)3.

In the case of `NCCOCCC(=O)O` [CA(PEG)1], under setting [1], the “aggregate population of γD-crystallin by dynamic light scattering” value (shortened to “aggregate population of γD-crystallin”) is on record as “absent” and the “size of the unaggregated protein by dynamic light scattering” value (from here on “size of the unaggregated protein”) came out at 2 nm.
As to `NCCOCCOCCC(=O)O` [CA(PEG)2], under setting [2], the “aggregate population of γD-crystallin” value is given as “absent” and the “size of the unaggregated protein” value was determined as 2 nm.
With `NCCOCCOCCOCCC(=O)O` [CA(PEG)3], under setting [3], the “aggregate population of γD-crystallin” value is listed as “absent” and the “size of the unaggregated protein” value turned out to be 2 nm.
Turning to `NCCOCCOCCOCCOCCC(=O)O` [CA(PEG)4], under setting [1], the “aggregate population of γD-crystallin” value is “absent” and the “size of the unaggregated protein” value came out at 2 nm.
